{"source": "ChEMBL document CHEMBL1629464", "about": "“Aldehyde oxidase: an enzyme of emerging importance in drug discovery” (J Med Chem, 2010)", "key": {"[1]": {"assay": "Oral bioavailability in dog", "format": "ADME, organism-based, Canis lupus familiaris", "settings": "in vivo"}, "Aldehyde oxidase 1 [2]": {"biological_target": "T1, Aldehyde oxidase 1 (Mus musculus, UniProt O54754)", "T1 sequence (O54754 whole entry)": "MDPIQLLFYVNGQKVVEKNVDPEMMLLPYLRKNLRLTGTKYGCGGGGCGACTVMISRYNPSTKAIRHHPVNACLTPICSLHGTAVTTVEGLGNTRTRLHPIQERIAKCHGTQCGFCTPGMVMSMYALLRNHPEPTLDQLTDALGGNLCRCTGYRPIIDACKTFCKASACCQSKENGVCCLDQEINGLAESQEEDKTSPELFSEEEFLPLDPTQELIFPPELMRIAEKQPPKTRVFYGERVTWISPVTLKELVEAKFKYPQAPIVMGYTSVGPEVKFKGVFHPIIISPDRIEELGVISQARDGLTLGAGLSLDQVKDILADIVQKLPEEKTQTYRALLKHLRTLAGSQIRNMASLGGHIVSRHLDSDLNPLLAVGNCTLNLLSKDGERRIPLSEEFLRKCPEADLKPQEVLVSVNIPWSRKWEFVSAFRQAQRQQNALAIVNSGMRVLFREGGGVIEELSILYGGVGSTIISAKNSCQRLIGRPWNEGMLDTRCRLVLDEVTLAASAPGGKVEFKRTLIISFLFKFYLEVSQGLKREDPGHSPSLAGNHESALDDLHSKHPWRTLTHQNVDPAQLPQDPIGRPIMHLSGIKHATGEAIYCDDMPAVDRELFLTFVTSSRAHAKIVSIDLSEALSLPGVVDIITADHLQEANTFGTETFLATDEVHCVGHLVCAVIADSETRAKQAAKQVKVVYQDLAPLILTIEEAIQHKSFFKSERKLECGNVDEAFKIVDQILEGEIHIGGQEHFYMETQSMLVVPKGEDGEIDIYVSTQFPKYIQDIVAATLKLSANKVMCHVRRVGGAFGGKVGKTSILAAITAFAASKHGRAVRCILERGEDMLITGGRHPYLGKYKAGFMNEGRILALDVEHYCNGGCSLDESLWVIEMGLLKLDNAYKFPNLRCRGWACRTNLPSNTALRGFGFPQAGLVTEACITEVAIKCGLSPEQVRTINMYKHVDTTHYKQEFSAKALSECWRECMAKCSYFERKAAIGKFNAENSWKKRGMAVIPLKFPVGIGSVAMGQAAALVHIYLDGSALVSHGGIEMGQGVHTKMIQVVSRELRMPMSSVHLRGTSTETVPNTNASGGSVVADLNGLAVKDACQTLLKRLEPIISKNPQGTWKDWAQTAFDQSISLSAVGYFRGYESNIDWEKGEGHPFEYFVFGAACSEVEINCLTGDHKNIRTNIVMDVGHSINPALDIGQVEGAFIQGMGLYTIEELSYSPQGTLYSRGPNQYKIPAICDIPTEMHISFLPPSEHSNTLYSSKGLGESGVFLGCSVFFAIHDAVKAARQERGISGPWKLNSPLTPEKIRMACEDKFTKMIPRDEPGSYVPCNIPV", "assay": "Inhibition of mouse aldehyde oxidase"}, "Aldehyde oxidase 1 [3]": {"biological_target": "T2, Aldehyde oxidase 1 (Macaca fascicularis, UniProt Q5FB27)", "T2 sequence (Q5FB27 whole entry)": "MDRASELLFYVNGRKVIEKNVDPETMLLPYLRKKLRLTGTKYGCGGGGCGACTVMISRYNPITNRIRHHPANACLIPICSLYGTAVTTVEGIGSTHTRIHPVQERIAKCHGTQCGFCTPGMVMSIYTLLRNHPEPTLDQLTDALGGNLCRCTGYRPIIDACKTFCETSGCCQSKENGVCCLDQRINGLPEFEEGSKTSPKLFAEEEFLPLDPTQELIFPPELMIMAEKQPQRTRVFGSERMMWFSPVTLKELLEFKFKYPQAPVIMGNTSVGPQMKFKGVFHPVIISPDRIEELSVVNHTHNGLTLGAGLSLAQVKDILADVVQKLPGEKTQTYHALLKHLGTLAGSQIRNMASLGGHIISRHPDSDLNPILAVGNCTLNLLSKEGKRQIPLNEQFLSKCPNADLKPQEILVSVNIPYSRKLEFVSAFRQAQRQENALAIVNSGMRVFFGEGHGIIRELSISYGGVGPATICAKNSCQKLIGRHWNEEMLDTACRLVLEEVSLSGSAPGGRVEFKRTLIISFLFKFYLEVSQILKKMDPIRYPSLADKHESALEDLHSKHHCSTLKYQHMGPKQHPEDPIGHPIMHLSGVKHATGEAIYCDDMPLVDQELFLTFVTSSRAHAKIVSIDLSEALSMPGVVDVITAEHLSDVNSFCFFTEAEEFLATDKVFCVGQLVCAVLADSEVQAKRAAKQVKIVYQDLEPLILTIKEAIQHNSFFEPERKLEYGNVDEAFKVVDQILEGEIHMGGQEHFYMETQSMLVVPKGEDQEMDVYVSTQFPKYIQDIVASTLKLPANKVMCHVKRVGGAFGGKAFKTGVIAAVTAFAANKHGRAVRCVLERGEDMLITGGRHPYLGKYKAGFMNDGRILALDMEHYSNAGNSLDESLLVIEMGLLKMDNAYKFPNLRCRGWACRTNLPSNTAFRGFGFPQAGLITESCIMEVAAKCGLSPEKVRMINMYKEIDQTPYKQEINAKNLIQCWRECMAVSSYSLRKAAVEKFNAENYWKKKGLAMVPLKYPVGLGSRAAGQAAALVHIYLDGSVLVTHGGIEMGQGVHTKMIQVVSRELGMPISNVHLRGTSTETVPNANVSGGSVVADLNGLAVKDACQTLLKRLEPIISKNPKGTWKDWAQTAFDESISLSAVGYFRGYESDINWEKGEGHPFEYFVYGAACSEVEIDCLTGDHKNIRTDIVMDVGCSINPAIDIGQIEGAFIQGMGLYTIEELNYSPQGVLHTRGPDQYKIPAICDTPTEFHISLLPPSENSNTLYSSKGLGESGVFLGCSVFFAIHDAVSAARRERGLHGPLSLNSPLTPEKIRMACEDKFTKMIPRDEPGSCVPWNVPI", "assay": "Inhibition of monkey aldehyde oxidase"}, "Aldehyde oxidase 1 [4]": {"biological_target": "T3, Aldehyde oxidase 1 (Rattus norvegicus, UniProt Q9Z0U5)", "T3 sequence (Q9Z0U5 whole entry)": "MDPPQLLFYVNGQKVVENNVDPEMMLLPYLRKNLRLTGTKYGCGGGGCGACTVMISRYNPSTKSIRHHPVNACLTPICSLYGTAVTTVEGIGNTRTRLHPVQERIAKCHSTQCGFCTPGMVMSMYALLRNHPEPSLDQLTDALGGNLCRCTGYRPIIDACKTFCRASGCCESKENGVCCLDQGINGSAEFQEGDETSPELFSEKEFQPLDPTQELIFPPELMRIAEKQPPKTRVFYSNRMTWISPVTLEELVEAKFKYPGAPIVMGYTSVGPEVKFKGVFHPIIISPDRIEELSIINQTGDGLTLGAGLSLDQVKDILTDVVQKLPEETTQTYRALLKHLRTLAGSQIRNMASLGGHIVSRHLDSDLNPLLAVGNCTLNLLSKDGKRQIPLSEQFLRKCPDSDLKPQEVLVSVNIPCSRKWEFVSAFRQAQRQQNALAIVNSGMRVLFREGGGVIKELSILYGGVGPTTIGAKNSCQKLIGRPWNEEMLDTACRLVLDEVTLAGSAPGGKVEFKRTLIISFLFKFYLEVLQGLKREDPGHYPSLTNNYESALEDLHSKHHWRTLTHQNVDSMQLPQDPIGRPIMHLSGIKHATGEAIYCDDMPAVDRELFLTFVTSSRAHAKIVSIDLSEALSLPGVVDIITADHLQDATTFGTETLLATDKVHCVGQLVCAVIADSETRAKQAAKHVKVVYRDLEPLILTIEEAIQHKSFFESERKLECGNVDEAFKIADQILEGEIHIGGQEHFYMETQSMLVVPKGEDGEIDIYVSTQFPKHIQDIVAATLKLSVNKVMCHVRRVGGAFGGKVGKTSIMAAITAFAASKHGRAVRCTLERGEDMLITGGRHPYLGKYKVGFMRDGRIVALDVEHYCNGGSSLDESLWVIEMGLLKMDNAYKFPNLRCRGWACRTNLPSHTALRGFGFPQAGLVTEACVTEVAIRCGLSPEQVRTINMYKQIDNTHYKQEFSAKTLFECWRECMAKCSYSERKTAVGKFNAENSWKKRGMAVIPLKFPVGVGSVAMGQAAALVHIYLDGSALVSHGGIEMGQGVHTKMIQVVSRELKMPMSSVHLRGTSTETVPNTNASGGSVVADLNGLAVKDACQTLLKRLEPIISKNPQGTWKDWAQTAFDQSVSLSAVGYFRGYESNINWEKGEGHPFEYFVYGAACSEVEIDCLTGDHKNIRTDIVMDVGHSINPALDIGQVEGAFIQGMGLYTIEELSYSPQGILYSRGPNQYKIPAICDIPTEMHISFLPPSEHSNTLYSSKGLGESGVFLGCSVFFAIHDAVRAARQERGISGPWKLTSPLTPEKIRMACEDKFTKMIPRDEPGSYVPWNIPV", "assay": "Inhibition of rat aldehyde oxidase"}, "Homo sapiens": {"tested_on": "Homo sapiens", "assay": "In-vivo intrinsic clearance in human", "format": "ADME, organism-based"}}, "data": [{"smiles": "CCNC(=O)OC1CCN(c2n[nH]c(=O)c3cc(OC)c(OC)cc23)CC1", "values": [{"measurement": "bioavailability", "setting": "[1]", "value": 68, "unit": "%"}]}, {"smiles": "O=C(c1ccc(OCCN2CCCCC2)cc1)c1c(-c2ccc(O)cc2)sc2cc(O)ccc12", "note": "[RALOXIFENE]", "values": [{"measurement": "IC50", "setting": "Aldehyde oxidase 1 [2]", "value": 500, "unit": "nM"}, {"measurement": "IC50", "setting": "Aldehyde oxidase 1 [3]", "value": 500, "unit": "nM"}, {"measurement": "IC50", "setting": "Aldehyde oxidase 1 [4]", "value": 1100, "unit": "nM"}]}, {"smiles": "CCN(C(C)=O)c1cccc(-c2ccnc3c(C#N)cnn23)c1", "note": "[ZALEPLON]", "values": [{"measurement": "CL", "setting": "Homo sapiens", "value": 90, "unit": "mL/min/kg"}]}]}
